The values below are quoted from earlier work in US8091801B2, “Generation of therapeutic microfoam” (BTG International Limited, priority 1999, dated 2012).

For this data set the following is noted: in water at STP.
As for `O=O` [Oxygen], the “Mole Fraction Solubility” value is 2.3 10^−5.

As for `[N-]=[N+]=O` [Nitrous oxide], the “Mole Fraction Solubility” value was 43.7 10^−5. Take `[He]` [Helium]: the “Mole Fraction Solubility” value is 0.7 10^−5.
